Laboratory results from PubChem BioAssay AID1259411 (Chemical Carcinogenesis Research Information System (CCRIS), 2018).
Active and inactive are the calls of the source. How the calls were made is not given here.

System: rodent carcinogenicity bioassays, tumor incidence
Assay: CCRIS carcinogenicity studies
Outline: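 Archive of carcinogenicity, mutagenicity, tumor promotion and tumor inhibition results drawn from journals, NCI reports and other sources, expert-reviewed; covers 1985-2011 and is no longer updated.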

SMILES: CN(N=O)C(=O)N[C@@H](C=O)[C@@H](O)[C@H](O)[C@H](O)CO
- carcinogen call (Species: HAMSTER, Route: INTRAPERITONEAL, INTRAVENOUS, Tumor Site: Type of Lesion: LIVER): active; positive
- carcinogen call (Species: MOUSE, Route: INTRAPERITONEAL, Tumor Site: Type of Lesion: KIDNEY, LUNG, UTERUS, Tumor Site: Type of Lesion: KIDNEY, LUNG, UTERUS): active; positive
- carcinogen call (Species: RAT, Route: INTRAPERITONEAL, Tumor Site: Type of Lesion: KIDNEY, LIVER): active; positive
- carcinogen call (Species: RAT, Route: INTRAVENOUS, Tumor Site: Type of Lesion: KIDNEY): active; positive
- carcinogen call (Species: RAT, Strain/Sex: SHR/MALE, Route: INTRAPERITONEAL, Dose: 0, 37.5, 50, 62.5, 75 MG/KG INJECTED ONCE (STUDY DURATION: 12 MO), Dose: 0, 37.5, 50, 62.5, 75 MG/KG INJECTED ONCE (STUDY DURATION: 12 MO), Tumor Site: Type of Lesion: LIVER: HEPATOMA, KIDNEY: NEPHROBLASTOMA, PANCREATIC ISLETS: TUMOR, Tumor Site: Type of Lesion: LIVER: HEPATOMA, KIDNEY: NEPHROBLASTOMA, PANCREATIC ISLETS: TUMOR): active; positive
- carcinogen call (Species: RAT, Strain/Sex: WISTAR/MALE, Route: INTRAPERITONEAL, Dose: 0, 100, 125, 137.5, 150 MG/KG INJECTED ONCE (STUDY DURATION: 12 M0), Dose: 0, 100, 125, 137.5, 150 MG/KG INJECTED ONCE (STUDY DURATION: 12 M0), Tumor Site: Type of Lesion: LIVER: HEPATOMA, KIDNEY: NEPHROBLASTOMA): active; positive

SMILES: O=CNC(N1CCOCC1)C(Cl)(Cl)Cl (centres undefined)
- carcinogen call (Species: RAT, Strain/Sex: WISTAR/FEMALE, Route: ORAL, Dose: 0, 67, 330, 665 MG/KG IN DIET LESS THAN 2 YR (STUDY DURATION: LESS THAN 2 YR), Dose: 0, 67, 330, 665 MG/KG IN DIET LESS THAN 2 YR (STUDY DURATION: LESS THAN 2 YR)): inactive; negative
- carcinogen call (Species: RAT, Strain/Sex: WISTAR/MALE, Route: ORAL, Dose: 0, 67, 330, 665 MG/KG IN DIET LESS THAN 2 YR (STUDY DURATION: LESS THAN 2 YR), Dose: 0, 67, 330, 665 MG/KG IN DIET LESS THAN 2 YR (STUDY DURATION: LESS THAN 2 YR)): inactive; negative

SMILES: O=S1OCC2C(CO1)C1(Cl)C(Cl)=C(Cl)C2(Cl)C1(Cl)Cl (centres undefined)
- carcinogen call (Species: MOUSE, Strain/Sex: B6C3F1/FEMALE, Route: ORAL, Dose: 0, 2.0, 3.9 PPM IN DIET, TWA, Dose: 0, 2.0, 3.9 PPM IN DIET, TWA): inactive; negative
- carcinogen call (Species: MOUSE, Strain/Sex: NMRI/FEMALE, Route: ORAL, Dose: 0, 2, 6, 18 PPM IN THE DIET FOR 24 MO (STUDY DURATION: 24 MO), Dose: 0, 2, 6, 18 PPM IN THE DIET FOR 24 MO (STUDY DURATION: 24 MO)): inactive; negative
- carcinogen call (Species: MOUSE, Strain/Sex: NMRI/MALE, Route: ORAL, Dose: 0, 2, 6, 18 PPM IN THE DIET FOR 24 MO (STUDY DURATION: 24 MO), Dose: 0, 2, 6, 18 PPM IN THE DIET FOR 24 MO (STUDY DURATION: 24 MO)): inactive; negative
- carcinogen call (Species: Mouse, Strain/Sex: NMRI Hoe:NMRKf (SPF71)/Female (60/Group), Route: Oral, Dose: 0 (sesame oil), 2, 6, 18 ppm 97.1% endosulfan in diet for 24 mo, study duration 24 mo., Dose: 0 (sesame oil), 2, 6, 18 ppm 97.1% endosulfan in diet for 24 mo, study duration 24 mo.): inactive; negative
- carcinogen call (Species: Mouse, Strain/Sex: NMRI Hoe:NMRKf (SPF71)/Male (60/Group), Route: Oral, Dose: 0 (sesame oil), 2, 6, 18 ppm 97.1% endosulfan in diet for 24 mo, study duration 24 mo., Dose: 0 (sesame oil), 2, 6, 18 ppm 97.1% endosulfan in diet for 24 mo, study duration 24 mo.): inactive; negative
- carcinogen call (Species: RAT, Strain/Sex: OSBORNE-MENDEL/FEMALE, Route: ORAL, Dose: 0, 223, 445 PPM IN DIET, TWA, Dose: 0, 223, 445 PPM IN DIET, TWA): inactive; negative
- carcinogen call (Species: RAT, Strain/Sex: SPRAGUE-DAWLEY/FEMALE, Route: ORAL, Dose: 0, 3, 7.5, 15, 75 PPM IN THE DIET FOR 104 WK (STUDY DURATION: 104 WK), Dose: 0, 3, 7.5, 15, 75 PPM IN THE DIET FOR 104 WK (STUDY DURATION: 104 WK)): inactive; negative
- carcinogen call (Species: RAT, Strain/Sex: SPRAGUE-DAWLEY/MALE, Route: ORAL, Dose: 0, 3, 7.5, 15, 75 PPM IN THE DIET FOR 104 WK (STUDY DURATION: 104 WK), Dose: 0, 3, 7.5, 15, 75 PPM IN THE DIET FOR 104 WK (STUDY DURATION: 104 WK)): inactive; negative
- carcinogen call (Species: Rat, Strain/Sex: Crl:CD (SD) BR/Female (50/Group), Route: Oral, Dose: 0, 3.0, 7.5, 15.0, 75.0 ppm in corn oil in diet for 104 wk, study duration 104 wk, Dose: 0, 3.0, 7.5, 15.0, 75.0 ppm in corn oil in diet for 104 wk, study duration 104 wk): inactive; negative
- carcinogen call (Species: Rat, Strain/Sex: Crl:CD (SD) BR/Male (50/Group), Route: Oral, Dose: 0, 3.0, 7.5, 15.0, 75.0 ppm in corn oil in diet for 104 wk, study duration 104 wk, Dose: 0, 3.0, 7.5, 15.0, 75.0 ppm in corn oil in diet for 104 wk, study duration 104 wk): inactive; negative

SMILES: O=S(=O)(O)OCc1c2ccccc2cc2c1ccc1ccccc12
- carcinogen call (Species: RAT, Strain/Sex: SPRAGUE-DAWLEY/FEMALE, Route: SUBCUTANEOUS, Dose: 0, 0.2 UMOL IN SESAME OIL:DMSO (9:1) 3/WK FOR 20 DOSES (STUDY DURATION: 52 WK), Tumor Site: Type of Lesion: INJECTION SITE: SARCOMA): active; positive

SMILES: O[C@H]1C=Cc2c(ccc3c2-c2cccc4cccc-3c24)[C@@H]1O
- carcinogen call (Species: MOUSE, Strain/Sex: CD-1/FEMALE, Route: INTRAPERITONEAL, Dose: 0, 0.275, 1.1 UMOL (TOTAL DOSE) ADMINISTERED OVER DAYS 1, 8, AND 15 OF LIFE (STUDY DURATION: 52 WEEKS), Dose: 0, 0.275, 1.1 UMOL (TOTAL DOSE) ADMINISTERED OVER DAYS 1, 8, AND 15 OF LIFE (STUDY DURATION: 52 WEEKS), Tumor Site: Type of Lesion: LUNG: ALVEOLAR/BRONCHIOLAR CARCINOMA): active; positive
- carcinogen call (Species: MOUSE, Strain/Sex: CD-1/MALE, Route: INTRAPERITONEAL, Dose: 0, 0.275, 1.1 UMOL(TOTAL DOSE) ADMINISTERED OVER DAYS 1, 8, AND 15 OF LIFE (STUDY DURATION: 52 WEEKS), Dose: 0, 0.275, 1.1 UMOL(TOTAL DOSE) ADMINISTERED OVER DAYS 1, 8, AND 15 OF LIFE (STUDY DURATION: 52 WEEKS), Tumor Site: Type of Lesion: LUNG: ALVEOLAR/BRONCHIOLAR CARCINOMA, LIVER: ADENOMA OR CARCINOMA): active; positive

SMILES: Cc1ccc2c(c1)[C@H](Nc1nc(N)nc(C(C)F)n1)[C@@H](C)C2 (some centres undefined)
- carcinogen call (Species: Mouse, Strain/Sex: C57BL/6J/Female (50/Group), Route: Oral, Dose: 0, 8.4, 42, 168 mg/kg/day of 93.14% indaziflam in diet for 18 mo, study duration 18 mo, Dose: 0, 8.4, 42, 168 mg/kg/day of 93.14% indaziflam in diet for 18 mo, study duration 18 mo): inactive; negative
- carcinogen call (Species: Mouse, Strain/Sex: C57BL/6J/Male (50/Group), Route: Oral, Dose: 0, 6.8, 34, 142 mg/kg/day of 93.14% indaziflam in diet for 18 mo, study duration 18 mo, Dose: 0, 6.8, 34, 142 mg/kg/day of 93.14% indaziflam in diet for 18 mo, study duration 18 mo): inactive; negative
- carcinogen call (Species: Rat, Strain/Sex: Wistar/Female (60/Group), Route: Oral, Dose: 0, 17, 167, 661 (wks 0-40), 452 (overall) mg/kg/day of 93.14% indaziflam in diet for 2 yr, study duration 2 yr, Dose: 0, 17, 167, 661 (wks 0-40), 452 (overall) mg/kg/day of 93.14% indaziflam in diet for 2 yr, study duration 2 yr): inactive; negative
- carcinogen call (Species: Rat, Strain/Sex: Wistar/Male (60/Group), Route: Oral, Dose: 0, 12, 118, 414 mg/kg/day of 93.14% indaziflam in diet for 2 yr, study duration 2 yr, Dose: 0, 12, 118, 414 mg/kg/day of 93.14% indaziflam in diet for 2 yr, study duration 2 yr): inactive; negative

SMILES: CC(=O)[O-].CC(=O)[O-].[OH-].[OH-].[OH-].[OH-].[Pb+2].[Pb+2].[Pb+2]
- carcinogen call (Species: MOUSE, Strain/Sex: STRAIN-A/MALE,FEMALE, Route: INTRAPERITONEAL, Dose: 30, 75, 150 MG/KG 3/WK FOR 5 WK, Dose: 30, 75, 150 MG/KG 3/WK FOR 5 WK, Tumor Site: Type of Lesion: LUNG: ADENOMA): active; positive
- carcinogen call (Species: MOUSE, Strain/Sex: SWISS/MALE, Route: ORAL, Dose: 0.1% IN DIET FOR TWO YR, Tumor Site: Type of Lesion: KIDNEY: ADENOMA, CARCINOMA): active; positive
- carcinogen call (Species: RAT, Strain/Sex: SPRAGUE-DAWLEY/MALE, Route: ORAL, Dose: 1% IN DIET, Tumor Site: Type of Lesion: KIDNEY: ADENOMA, CARCINOMA, BRAIN: GLIOMA): active; positive
- carcinogen call (Species: RAT, Strain/Sex: WISTAR/MALE,FEMALE, Route: ORAL, Dose: 0.1, 1.0% IN DIET FOR UP TO 29 MO, Tumor Site: Type of Lesion: KIDNEY: CARCINOMA): active; positive
